According to patent publication EP0386258A1, “TETRAHYDROPYRIDINE DERIVATIVES” (Asahi Kasei Kabushiki Kaisha, priority 1988, dated 1990):
Counter-ions that a name gives are not always drawn.

What was measured:
[1] = tested on: akinesia of mice during forced swimming; assay: mill wheel test (forced swimming), psychoanaleptic activity; type: in vivo
Procedure: This test was conducted in the following manner according to a method described in S. Nomura et al., Eur. J. Pharmacol., 83, 171 - 175 (1982).
Activities of each drug on the akinesia of mice during forced swimming were examined by a mill wheel test. Now the meaning of this test will be described. The akinesia observed during forced swimming of mice may be regarded as emotional disturbance since the animals resign escaping from the narrow environment (device) as the result of learning. It has been known that this akinesia can be shortened by drugs having psychoanaleptic effects such as antidepressants or MAO inhibitors. Namely, each drug was orally administered to a mouse. 40 minutes after the administration, the mouse was introduced into a water tank provided with a mill wheel and contained water at 25 °C. Then, the number of rotations of the wheel was counted throughout the observation period (6 minutes). However, P-CC2 was subcutaneously administered to avoid decomposition in digestive organ and the examination was conducted for 15 minutes thereafter (see Margaret M. Schweri, Joseph V. Martin, Wallace B. Mendelson, James E. Barrett, Steven M. Paul and Phil Skolnick, Life Science, 1505-1510, 33 (1983) and P. Skolnick, M. M. Schweri, S. M. Paul, J. V. Martin and W. B. Mendelson, Life Science, 2439-2445, 32 (1983)).

[2] = subacute toxicity, oral administration for 35 days; settings: rat, in vivo
Procedure: (§1) Subacute toxicities of N-(2-aminoethyl)benzo[b]thieno-[2,3-c]pyridine-3-carboamide (A-6) and N-cyclohexyl-1,2,3,4-tetrahydrobenzo[b]thieno[2,3-c]pyridine-3-carboamide (A-9) were tested by orally administering these compounds to Wistar rats for 35 days. The test was conducted in the following manner.
(§2) Each compound was compulsory orally administered to Wistar SPF rats once a day between 9.00 a.m. to 11:30 a.m. by using a 2 ml or 5 ml disposable syringe and a rat gastric sound for 35 days continuously. Syringes were exchanged for each dose and for each compound. The administration period was determined by referring the initial day of the administration as to 0 day.

Wistar rats = assay: subacute toxicity, oral administration for 35 days; settings: rat, in vivo
Procedure: as §1, §2

male Wister rats [3] = assay: water lick conflict test, learning improvement activity (latent time); type: in vivo; settings: time until first drinking water, average of no-drug rats defined as 100 (n = 5)
Source text: (§3) The antianxiety activity and learning improvement activity of the compounds of the present invention were examined by using male Wister rats aged 6 weeks by a water lick conflict test by reference to a method described by Vogel J. R., Beer B. and Clody D. E. described in Psvcho^pharmacolo^qia, 1 - 7, 21 (1971).
(§4) In this test, rats having abstained from water were used and an electric shock was applied to the animals every time they drank water to bring the rats into an anxious state. Thus the activity of medicaments to the rats were determined.
This test was conducted simultaneously with the measurement of the antianxiety activity (2) and aims at measuring the latent time when the rats abstinence from water first began to drink water.
A longer latent time means the higher learning improvement activity.

male Wister rats [4] = assay: water lick conflict test, antianxiety activity (shocked number); type: in vivo; settings: electric shocks within 5 minutes, no-drug rat defined as 100 (n = 5)
Source text: as §3, §4
Rats, having abstained from water for 24 hours prior to the test, were allowed to access to water. After 4 to 5 hours, a drug was administered to the animals. After a definite treatment period, the test was initiated. The shocked number means the number of electric shocks applied to the rats within 5 minutes after initially allowing them to access to water. […] That is, an increase in the shocked number means that the antianxiety activity is increased.

[5] = 60 mg/kg orally, 40 minutes after administration, observation period 6 minutes, water at 25 °C

| Structure (SMILES) | Numbers of Rotations of Wheel [1, 5] | Latent Time (male Wister rats [3]; 40 mg/kg P.O.) | Shocked Number (male Wister rats [4]; 40 mg/kg P.O.) | further results |
| --- | --- | --- | --- | --- |
| O=C(NC1CCCCC1)C1Cc2c(sc3ccccc23)CN1 (centres unmarked) [Compound A-9, N-cyclohexyl-1,2,3,4-tetrahydrobenzo[b]thieno-[2,3-c]pyridine-3-carboamide hydrochloride] | 37.1±8.0 | – | – | NOAEL at 840 h ([2]; Safe Dose): 200 mg/kg; NOAEL at 840 h ([2]; Subeffective Dose): 50 mg/kg; Toxic (lethal) Dose (Wistar rats): 800 mg/kg; Latent Time (male Wister rats [3]; 30 mg/kg P.O.): 350±32; Shocked Number (male Wister rats [4]; 30 mg/kg P.O.): 389±41 |
| CCNC(=O)C1Cc2c(sc3ccccc23)CN1 (centres unmarked) [Compound A-7, N-ethyl-1,2,3,4-tetrahydrobenzo[b]thieno(2,3-c]pyridine-3-carboamide] | 19.3±8.1 | 232±34.7 | 127.1±31.5 | – |
| O=C(c1cc2c(cn1)sc1ccccc12)N1CCCNCC1 [Compound A-3, hexahydro-l-(benzo[b]-thieno[2,3-c]pyridine-3-carbonyl)-lH-1,4-diazepine] | 22.4±6.7 | – | – | – |
| CCOC(=O)c1cc2c(cn1)[nH]c1ccccc12 [β-CCE, β-carboline-3-carboxylic acid ethyl ester] | – | 312±38.2 | 82.9±20.0 | Numbers of Rotations of Wheel ([1]; 10 mg/kg subcutaneously, examination 15 minutes thereafter): 23.6±4.1 |
| Clc1ccc2sc3c(c2c1)CCNC3 [Compound C-1, 6-chloro-1,2,3,4-tetrahydrobenzo[b]-thieno[2,3-c]pyridine] | 24.3±4.3 | 128±19.6 | 104.3±28.6 | – |
| CCOC(=O)C1Cc2c(sc3ccccc23)CN1 (centres unmarked) [Compound A-2, l,2,3,4-tetrahydrobenzo[b]thieno[2,3-c]pyridine-3-carboxylic acid ethyl ester] | 26.5±2.9 | – | – | – |
| O=C(c1cc2c(cn1)sc1ccccc12)N1CCCCC1 [Compound A-4, 1-(benzo[b]thieno[2,3-c]pyridine-3-carbonyl)piperidine] | 24.7±3.9 | – | – | – |
| CCCCCCNC(=O)C1Cc2c(sc3ccccc23)CN1 (centres unmarked) [Compound A-8, N-hexyl-1,2,3,4-tetrahydrobenzo[b]-thieno[2,3-c]pyridine-3-carboamide] | 20.9±7.6 | 249±36.6 | 111.8±28.6 | – |
| O=C(c1cc2c(cn1)sc1ccccc12)N1CCOCC1 [Compound A-5, 4-(benzo[b]thieno[2,3-c]pyridine-3-carbonyl)morpholine] | 21.3±4.0 | – | – | – |
| CCOC(=O)c1cc2c(cn1)sc1ccccc12 [Compound A-1, benzo[b]thieno[2,3-c]pyridine-3-carboxylic acid ethyl ester] | 23.4±6.8 | 132±29.9 | 117.1±25.7 | – |
| NCCNC(=O)c1cc2c(cn1)sc1ccccc12 [Compound A-6, N-(2-aminoethyl)benzo[b]thieno[2,3-c]pyridine-3-carboamide] | 25.4±9.1 | – | – | NOAEL at 840 h ([2]; Safe Dose): 50 mg/kg; NOAEL at 840 h ([2]; Subeffective Dose): 50 mg/kg; Toxic (lethal) Dose (Wistar rats): 200 mg/kg |
